# Target: T1, AlnA (Streptomyces sp. CM020, UniProt B6SEG5)
# T1 sequence (B6SEG5 1-306): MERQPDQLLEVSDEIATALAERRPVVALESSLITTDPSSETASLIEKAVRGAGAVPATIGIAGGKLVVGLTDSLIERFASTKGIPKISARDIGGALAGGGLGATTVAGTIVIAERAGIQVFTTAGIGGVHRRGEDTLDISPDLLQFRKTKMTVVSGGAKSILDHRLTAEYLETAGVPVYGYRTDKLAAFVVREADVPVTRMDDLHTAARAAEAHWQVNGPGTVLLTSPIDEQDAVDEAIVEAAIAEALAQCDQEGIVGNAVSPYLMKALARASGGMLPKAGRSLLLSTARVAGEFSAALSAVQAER
# Experiment: protein mass spectrometry after NaBH4 trapping
# Type: binding
# Settings: covalent; Schiff base at Lys159
compound,measurement,value
"O=P(O)(O)OC[C@H]1OC(O)[C@H](O)[C@@H]1O (stereo partly shown) [compound 4, ribose 5-phosphate]",protein mass spectrometry after NaBH4 trapping; tryptic proteolysis,the covalent modification occurred at the highly conserved Lys159 residue in AlnA
